The values below come from PubChem BioAssay (NCI).

Common to all, as to experiment: growth of human tumour cells (NCI), 48 h
In assay [1] the test system is HL-60(TB) leukemia.
The subject of assay [2] is OVCAR-5 ovarian.
Assay [3] concerns MALME-3M melanoma.
In assay [4] the test system is ACHN renal.
Assay [5] concerns EKVX NSCLC.
Assay [6] concerns T-47D breast.
The subject of assay [7] is NCI-H460 lung.
The test system of assay [8] is UO-31 renal.
Assay [9] has as its system MCF7 breast.
Assay [10] relates to HCC-2998 colon.

Several values for one entry are separate records, joined by “and”; a condition that tells them apart may be missing. Identical values can stand only once.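 A five-concentration, 48-hour dose response in 96-well plates underlies each endpoint, interpolated linearly between surrounding concentrations. At the GI50, growth is halved. TGI marks complete inhibition of growth.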 Where only a bound is given, the exact number is not on record here.

As for `COc1cc2c(cc1OCCCCCOc1cc3c(cc1OC)C(=O)N1CC(F)C[C@H]1C=N3)N=C[C@@H]1CC(F)CN1C2=O` (some centres undefined), the GI50 is < 0.01 µM in assay [1]; 0.117 µM in [2]; 0.124 µM in [3]; < 0.0169 µM in assay [4]; 1.1 µM in assay [5]; 0.265 µM in [6]. In addition, the GI50 in [7] was < 0.01 µM; in assay [8], 0.315 µM; in assay [9], < 0.0108 µM; in [10], 0.229 µM. Besides, the TGI in assay [1] came out at 2.39 µM; in assay [2] it was 3.25 µM; in assay [3], 0.733 µM; in [4] it was 0.167 µM; in assay [5], 7.78 µM; in [6], 14 µM. In addition, the TGI in assay [7] stood at 0.143 µM; in [8] it was 4.64 µM; in assay [9], 1.31 µM; in assay [10] it was 2.89 µM.
In the case of `Cn1cc(C2=C(c3cn(CCO)c4ccccc34)C(=O)NC2=O)c2ccccc21`, the GI50 was 1.12 µM in assay [1]; 10.9 µM in [2]; 6.9 µM in assay [3]; 4 µM in assay [4]; 3.96 µM in assay [6]; 2.06 µM in [7]. The GI50 is 3.2 µM in assay [8], 1.24 µM in [9] and 5.56 µM in assay [10]. Also, the TGI in [1] is 6.36 µM; in [2] it was > 25 µM; in assay [3], 17.5 µM; in [4], > 25 µM; in assay [6], 13.1 µM; in [7], > 25 µM. Besides, the figures for the TGI in assay [8], in assay [9] and in assay [10] were 14.6 µM, > 25 µM and > 23.6 µM, respectively.
`Cc1nc(-c2ccccc2)c(Cc2ccccc2O)c(=O)[nH]1`: the TGI in assay [1], in assay [2], in assay [3], in [4], in assay [5] and in assay [6] was > 100 µM throughout. Also, the TGI in assay [7], in [8] and in [9] was > 100 µM throughout.
For the molecule `Clc1ccc(/C=C/c2cc(N3CCOCC3)c3cc(Cl)c(Cl)cc3n2)cc1`, the GI50 in assay [1] is 0.339 µM; in assay [2], > 100 µM; in [3], > 100 µM; in [4] it was > 100 µM; in [6], > 100 µM; in assay [7] it was > 100 µM. The GI50 in assay [8] was 0.71 µM; in assay [9] it was > 100 µM; in assay [10], > 100 µM. The TGI in assay [1], in assay [2], in assay [3], in assay [4], in assay [6] and in [7] was > 100 µM in each case. For the same molecule, the TGI in assay [8] was > 45.7 µM; in assay [9], > 100 µM; in assay [10], > 100 µM.
On to `N#Cc1ncc(-c2ccc(C(F)(F)F)cc2)c(NCc2cc(C(F)(F)F)cc(C(F)(F)F)c2)n1`, for which the GI50 in [1] is 2.36 µM; in assay [2] it was 8.9 µM; in [3], 2.98 µM; in assay [4], 3.62 µM; in [6] it was 3.35 µM; in [7], 3.02 µM. The GI50 is 2.89 µM in assay [8], 2.74 µM in [9] and 4.17 µM in [10]. The TGI in assay [1] is 5.76 µM; in [2], > 100 µM; in assay [3], 8.89 µM; in assay [4] it was > 100 µM; in assay [6] it was > 100 µM; in assay [7] it was 10.2 µM. The results for the TGI in [8], in assay [9] and in assay [10] were 54.4 µM, > 100 µM and > 100 µM, respectively.
As for `CCOC(=O)/C(=N\OC)C(O)C(F)(F)F` (centres undefined), the TGI in assay [1], in assay [2], in assay [3], in assay [4], in [5] and in assay [6] was > 100 µM each time. In addition, the TGI in assay [8], in assay [9] and in assay [10] was > 100 µM in each case.
`Clc1cc2c(cc1Cl)Oc1cc(Cl)c(Cl)cc1O2`: the GI50 in [1], in assay [2], in assay [3], in assay [4], in [6] and in [7] was > 0.625 µM in each case. Besides, the figures for the GI50 in [8], in [9] and in assay [10] were 0.209 µM, > 0.625 µM and > 0.625 µM, respectively. Besides, the TGI in assay [1], in [2], in assay [3], in assay [4], in assay [6] and in assay [7] was > 0.625 µM in each case. Moreover, the TGI in assay [8], in [9] and in [10] was > 0.625 µM throughout.
As for `CCCCCCc1cc2cc(-c3nc4ccccc4[nH]3)c(=Nc3ccccc3C)oc2cc1O`, the GI50 is 2.13 µM in [1]; 3.64 µM in assay [2]; 1.81 µM in assay [3]; 2.04 µM in assay [4]; 2.12 µM in [6]; 2.12 µM in assay [7]. The results for the GI50 in assay [8], in assay [9] and in assay [10] were 1.64 µM, 2.24 µM and 22.2 µM, respectively. Further, the TGI in assay [1] turned out to be 4.52 µM; in [2], 29 µM; in assay [3], 3.62 µM; in [4] it was 5.24 µM; in [6], 5.25 µM; in assay [7], 4.77 µM. Besides, the TGI is 4.49 µM in assay [8], > 23.8 µM in assay [9] and > 77.3 µM in [10].
For `S=C(N/N=C(/c1ccccc1)c1ccccn1)N1CCCCC1`, the GI50 in [2] was < 0.001 µM; in [3], 0.00735 µM; in [4], < 0.001 µM; in [5], 1.21 µM; in [6], < 0.001 µM; in assay [7] it was 0.00149 µM. Besides, the GI50 in [8] is 0.468 µM. For the same molecule, the TGI in assay [2] is 2.49 µM and 2.11 µM; in assay [3] it was 2.27 µM and 2.2 µM; in assay [4], 1.49 µM and 1.46 µM; in assay [5], 2.45 µM and 0.558 µM; in assay [6] it was 1.01 µM and 2.9 µM; in assay [7], 2.31 µM and 1.52 µM. Also, the TGI was 2.01 µM and 1.54 µM in assay [8]; 4.12 µM in [9]; 2.1 µM in [10].
Take `COc1ccc2c(c1O)C13CCN(C)C(C2)C1CCC1(C3)OCCO1` (centres undefined): the TGI in [2], in assay [3], in assay [4], in assay [5], in assay [6] and in assay [7] was > 100 µM throughout. Further, the TGI in assay [8], in assay [9] and in assay [10] was > 100 µM throughout.
Turning to `Cc1cc(Cl)cc2c(N=Nc3ccccc3[N+](=O)[O-])c(O)[nH]c12`, the TGI in [1], in [2], in [4], in [5], in assay [6] and in [7] was > 100 µM each time. Also, the TGI in [8], in assay [9] and in assay [10] was > 100 µM throughout.
As to `Cc1cc2cc3cc(C)c(N(C)C)cc3[n+](C)c2cc1N(C)C`, the GI50 in assay [1] is 3.22 µM; in [2], 11.9 µM; in [3] it was 3.6 µM; in [4] it was 3.69 µM; in [6] it was 2.94 µM; in assay [7], 2.65 µM. Besides, the values for the GI50 in [8], in assay [9] and in [10] were 5.05 µM, 2.38 µM and 3.45 µM, respectively. Also, the TGI in assay [1] was > 100 µM; in assay [2] it was > 100 µM; in assay [3], 19.4 µM; in assay [4], > 100 µM; in assay [6], > 100 µM; in [7] it was 11 µM. Besides, the TGI in assay [8] was 70.7 µM; in assay [9], > 100 µM; in assay [10], 16.7 µM.
As to `CS(=O)(=O)OCC1OC(n2ccc(NC(=O)c3ccccc3)nc2=O)CC1OS(C)(=O)=O` (centres undefined), the TGI in [1], in assay [2], in assay [4], in assay [5], in assay [6] and in assay [7] was > 100 µM throughout. Further, in assay [9], the TGI was > 100 µM.
For the molecule `CC/C(=C(/c1ccc(OCCN(C)C)cc1)c1ccc(OC(=O)CCC(=O)c2c(C)[nH]c(/C=C3\N=C(c4ccc[nH]4)C=C3OC)c2C)cc1)c1ccccc1`, the GI50 in assay [1] is 3.13 µM; in assay [2] it was 5.75 µM; in assay [3] it was 2.68 µM; in assay [4], 2.57 µM; in assay [6], 1.34 µM; in assay [7], 3.48 µM. In addition, the figures for the GI50 in [8], in [9] and in [10] were 1.71 µM, < 0.0217 µM and 3.72 µM, respectively. Further, the TGI in [1] is 8.8 µM; in [2] it was 21.6 µM; in assay [3], 6.35 µM; in [4], 15.9 µM; in assay [6] it was 7.79 µM; in assay [7], 14.1 µM. Also, the TGI amounted to 5.05 µM in [8], 2.66 µM in [9] and 13.4 µM in [10].
Turning to `O=S(=O)(Cc1ccc(Cl)cc1Cl)c1ccc(Cl)cc1`, the GI50 in assay [1] was 0.37 µM; in [2], 4.28 µM; in [4], 1.04 µM; in [5], 2.11 µM; in assay [6], 6.02 µM; in assay [7] it was 0.401 µM. The GI50 in assay [8] was 1.03 µM; in assay [9], 0.341 µM; in assay [10] it was 1.09 µM. Further, the TGI is 17.7 µM in [1]; > 100 µM in assay [2]; > 100 µM in assay [4]; > 100 µM in [5]; > 100 µM in assay [6]; 30 µM in assay [7]. Moreover, the values for the TGI in assay [8], in [9] and in assay [10] were > 53.3 µM, > 100 µM and 8.97 µM, respectively.
As for `Nc1ncnc2c1ncn2Cc1ccc(C23CC4CC(CC(C4)C2)C3)c(OCc2cc(F)c(F)cc2F)c1`, the GI50 in assay [1] is 3.06 µM; in [2], 68.6 µM; in assay [3], 4.59 µM; in assay [4], 5.74 µM; in assay [6] it was > 100 µM; in assay [7], 4.33 µM. Besides, the GI50 in assay [9] is 6.37 µM; in [10] it was 6.26 µM. In addition, the TGI in assay [1] is 10.7 µM; in [2] it was > 100 µM; in [3], > 100 µM; in assay [4] it was > 100 µM; in assay [6], > 100 µM; in assay [7], > 100 µM. Moreover, the values for the TGI in assay [9] and in assay [10] were 30.2 µM and 57.8 µM, respectively.
With `Cc1cc(NCCCNc2ccnc3cc(Cl)ccc23)nc(N2CCN(C)CC2)n1`, the GI50 in assay [1] was 2.99 µM; in assay [2], 11.6 µM; in assay [3], 2.12 µM; in assay [4] it was 3.71 µM; in assay [6], 6.7 µM; in [7], 2.66 µM. The GI50 was 4.05 µM in assay [8], 2.77 µM in [9] and 2.36 µM in assay [10]. Also, the TGI in assay [1] was 9.06 µM; in assay [2] it was 43.2 µM; in assay [3], 4.47 µM; in assay [4], 21 µM; in assay [6], 30.9 µM; in [7], 10.4 µM. Further, the values for the TGI in [8], in assay [9] and in assay [10] were 24 µM, 28.4 µM and 11.1 µM, respectively.
`CCOC(=O)c1sc2ncn(Cc3cccc(Br)c3)c(=O)c2c1C`: the GI50 in assay [1] is 28.7 µM; in [2] it was > 100 µM; in assay [4] it was 84.6 µM; in assay [5], 25 µM; in assay [6] it was 36.5 µM; in [7], 77.3 µM. Also, the GI50 was 34.2 µM in [8], 31.4 µM in assay [9] and 66.8 µM in [10]. Further, the TGI in assay [1], in [2], in [4], in assay [5], in [6] and in [7] was > 100 µM in each case. Further, the TGI in assay [8], in [9] and in assay [10] was > 100 µM throughout.
With `O=C1c2cccnc2C(=O)C2C3C=CC(C3)C12` (centres undefined), the TGI in [2] came to 35.8 µM; in assay [3], 29.5 µM; in assay [4], 20.4 µM; in [5], 28.8 µM; in [6], 13.2 µM; in assay [7], 15.6 µM. The results for the TGI in assay [8], in assay [9] and in [10] were 28.1 µM, 15.4 µM and 29.9 µM, respectively.
